According to US8541377B2, “Optimized dengue virus entry inhibitory peptide (DN81)” (Florida Gulf Coast University, priority 2007, dated 2013):
Residues, ends and D or L forms follow the SMILES beside them.

Tested on: LLCMK-2 cells
Conditions: confluent LLCMK-2 monolayers; concentration ranges that showed viral inhibition; vs medium only controls, p>0.05; FIG. 4
Protocol: The cytotoxicity of the chemistries was measured by monitoring mitochondrial reductase activity using the TACS™ MTT cell proliferation assay (R&D Systems, Inc., Minneapolis, Minn.) according to the manufacturer's instructions. Dilutions of chemistries in serum-free DMEM were added to confluent monolayers of LLCMK-2 cells in 96-well plates for 1 h at 37° C., similar to the focus forming inhibition assays, and subsequently incubated at 37° C. with 5% (v/v) CO2 for 24 h. Absorbance at 560 nm was measured using a Tecan GeniosPro plate reader (Tecan US, Durham, N.C.).

For `CSCC[C@H](NC(=O)[C@H](Cc1c[nH]c2ccccc12)NC(=O)[C@@H](N)CCCNC(=N)N)C(=O)N[C@H](C(=O)N[C@@H](Cc1c[nH]c2ccccc12)C(=O)N[C@@H](CCCNC(=N)N)C(=O)N[C@@H](Cc1c[nH]cn1)C(=O)N[C@@H](Cc1c[nH]c2ccccc12)C(=O)N[C@@H](Cc1ccccc1)C(=O)N[C@@H](Cc1c[nH]cn1)C(=O)N[C@@H](CCCNC(=N)N)C(=O)N[C@@H](CC(C)C)C(=O)N[C@@H](CCCNC(=N)N)C(=O)N[C@@H](CC(C)C)C(=O)N1CCC[C@H]1C(=O)N[C@@H](Cc1ccc(O)cc1)C(=O)N[C@@H](CC(N)=O)C(=O)N1CCC[C@H]1C(=O)NCC(=O)N[C@@H](CCCCN)C(=O)N[C@@H](CC(N)=O)C(=O)N[C@@H](CCCCN)C(=O)N[C@@H](CCC(N)=O)C(=O)N[C@@H](CC(N)=O)C(=O)N[C@@H](CCC(N)=O)C(=O)N[C@@H](CCC(N)=O)C(=O)N[C@@H](Cc1c[nH]c2ccccc12)C(=O)N1CCC[C@H]1C(=O)O)C(C)C` [DN81] (H-RWMVWRHWFHRLRLPYNPGKNKQNQQWP-OH), the “toxicity (mitochondrial reductase activity of target cells)” value was “not due to toxicity”.
